Source: US20040049056A1 (priority 2000, published 2004)
Like-named read-outs stand apart in the source and are kept apart here.

Assays:
[1] = test system: plants; assay: Assay for herbicidal activity of esculetin compounds (method similar to Assay example 2); assay type: in vivo
Description: The activities of the following esculetin compounds was confirmed by a method similar to Assay example 2.

[2] = test system: plant pathogenic fungi; assay: Assay for antifungal activity of esculetin compounds (method similar to Assay example 1); assay type: cell-based
Description: The activities of the following esculetin compounds was confirmed by a method similar to Assay example 1.

[3] = test system: Pythium aphanidermatum; assay type: cell-based
[4] = test system: Septoria tritici; assay type: cell-based
[5] = test system: Fusarium nivale; assay type: cell-based
[6] = test system: Pyricularia oryzae; assay type: cell-based
[7] = test system: Pytophthora infestans; assay type: cell-based

Row | Compound | Herbicidal activity [1] | Antifungal activity [2] | Rate of growth suppression (%) P.a [3] | Rate of growth suppression (%) S.t [4] | Rate of growth suppression (%) F.niv [5] | Rate of growth suppression (%) P.o [6] | Rate of growth suppression (%) P.i [7] | Rate of growth suppression (%) P.o ([6]; 10 mg/L, 3 DAT) | Rate of growth suppression (%) P.i ([7]; 10 mg/L, 4 DAT) | melting point [°C]
1 | O=c1ccc2cc(O)c(OCc3ccccc3)cc2o1 [7-benzyloxy-6-hydroxycoumarin] | confirmed | confirmed |  |  |  |  |  |  |  | 
2 | Oc1ccc(O)c(OCc2ccccc2)c1 [Compound (a), 2-benzyloxy-1,4-hydroquinone] |  |  | + (key: −: less than 10%; +: 10 to 60%; ++: more than 60%) | + (key: −: less than 10%; +: 10 to 60%; ++: more than 60%) | + (key: −: less than 10%; +: 10 to 60%; ++: more than 60%) | ++ (key: −: less than 10%; +: 10 to 60%; ++: more than 60%) | + (key: −: less than 10%; +: 10 to 60%; ++: more than 60%) |  |  | 
3 | O=Cc1cc(O)c(OCc2ccccc2)cc1O [Compound (b), 2,5-dihydroxy-4-benzyloxybenzaldehyde] |  |  | ++ (key: −: less than 10%; +: 10 to 60%; ++: more than 60%) | + (key: −: less than 10%; +: 10 to 60%; ++: more than 60%) | ++ (key: −: less than 10%; +: 10 to 60%; ++: more than 60%) |  |  | + (10 to 60%) | + (10 to 60%) | 
4 | CC(=O)Oc1cc(OCc2ccccc2)c(OC(C)=O)cc1C=O [Compound (c), 2,5-diacetoxy-4-benzyloxybenzaldehyde] |  |  | + (key: −: less than 10%; +: 10 to 60%; ++: more than 60%) | ++ (key: −: less than 10%; +: 10 to 60%; ++: more than 60%) | ++ (key: −: less than 10%; +: 10 to 60%; ++: more than 60%) |  |  | + (10 to 60%) | + (10 to 60%) | 
5 | O=Cc1cc2c(cc1O)OCO2 [Compound (d), 4,5-methylenedioxysalicylaldehyde] |  |  | + (key: −: less than 10%; +: 10 to 60%; ++: more than 60%) | + (key: −: less than 10%; +: 10 to 60%; ++: more than 60%) | + (key: −: less than 10%; +: 10 to 60%; ++: more than 60%) | + (key: −: less than 10%; +: 10 to 60%; ++: more than 60%) | + (key: −: less than 10%; +: 10 to 60%; ++: more than 60%) |  |  | 125 to 126
6 | CC1(C)Oc2cc(O)c(C=O)cc2O1 [Compound (e), 2,2-dimethyl-5-formyl-6-hydroxy-1,3-benzodioxol] |  |  | + (key: −: less than 10%; +: 10 to 60%; ++: more than 60%) | + (key: −: less than 10%; +: 10 to 60%; ++: more than 60%) | + (key: −: less than 10%; +: 10 to 60%; ++: more than 60%) |  |  | + (10 to 60%) | + (10 to 60%) | 104 to 105
7 | CC1(C)Oc2cc3ccc(=O)oc3cc2O1 [esculetin acetonide] | confirmed | confirmed |  |  |  |  |  |  |  | 
8 | O=c1ccc2cc3c(cc2o1)OCO3 [methylenedioxycoumarin] | confirmed | confirmed |  |  |  |  |  |  |  | 
